In general, IC50 refers to the concentration at which inhibition is half-maximal. Higher therefore signals a need for much substance.

Sequence of HCV-NS3/4A protease (O92972 1027-1207, other chains not shown): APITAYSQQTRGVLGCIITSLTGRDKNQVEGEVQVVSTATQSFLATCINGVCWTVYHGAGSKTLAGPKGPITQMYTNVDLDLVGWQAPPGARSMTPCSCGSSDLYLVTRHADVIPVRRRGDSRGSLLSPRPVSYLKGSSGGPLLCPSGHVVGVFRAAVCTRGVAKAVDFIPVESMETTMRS

The assay has as its target HCV-NS3/4A protease (Hepacivirus hominis (Hepatitis C virus), UniProt O92972). Kind of assay: HCV-NS3/4A protease inhibition, in vitro FRET assay. Format: biochemical. As to conditions: IC50, purified HCV-NS3/4A protease.
Take `Cn1c(NN)nc2cc3ccccc3cc2c1=O` [Compound 7, 3-Methyl-2-hydrazinylbenzo[g]quinazolin-4(3H)-one]: the IC50 came to 22.3 ± 0.46 µM.
For `CCn1c(NN)nc2cc3ccccc3cc2c1=O` [Compound 8, 3-Ethyl-2-hydrazinyl-benzo[g]quinazolin-4(3H)-one] the value was 78.8 ± 1.7 µM.
To `Cc1ccc2nc(NN)n(C)c(=O)c2c1` [Compound 14, 3-Methyl-2-hydrazinyl-6-methyl-3H-quinazolin-4-one] belongs 25.5 ± 0.55 µM; to `CCn1c(NN)nc2ccc(C)cc2c1=O` [Compound 15, 3-Ethyl-2-hydrazinyl-6-methyl-3H-quinazolin-4-one], 178 ± 3.9 µM.

Source of the values: publication PMC9056986 (RSC Advances, 2020).
